Data from ChEMBL document CHEMBL1129592 (J Med Chem, 1996).
pIC50: −log10 of the molar value.

Assays:
[1] = Selectivity ratio of IC50 values of 5-hydroxytryptamine 1A receptor vs 5-hydroxytryptamine 2 receptor
[2] = molecular target: T1, Adrenergic receptor alpha-1 (Rattus norvegicus, UniProt P15823+P23944+P43140); test: Binding affinity towards rat Alpha-1 adrenergic receptor was evaluated using [3H]- prazosin as radioligand; assay type: protein assay
T1 sequence (P15823 whole entry): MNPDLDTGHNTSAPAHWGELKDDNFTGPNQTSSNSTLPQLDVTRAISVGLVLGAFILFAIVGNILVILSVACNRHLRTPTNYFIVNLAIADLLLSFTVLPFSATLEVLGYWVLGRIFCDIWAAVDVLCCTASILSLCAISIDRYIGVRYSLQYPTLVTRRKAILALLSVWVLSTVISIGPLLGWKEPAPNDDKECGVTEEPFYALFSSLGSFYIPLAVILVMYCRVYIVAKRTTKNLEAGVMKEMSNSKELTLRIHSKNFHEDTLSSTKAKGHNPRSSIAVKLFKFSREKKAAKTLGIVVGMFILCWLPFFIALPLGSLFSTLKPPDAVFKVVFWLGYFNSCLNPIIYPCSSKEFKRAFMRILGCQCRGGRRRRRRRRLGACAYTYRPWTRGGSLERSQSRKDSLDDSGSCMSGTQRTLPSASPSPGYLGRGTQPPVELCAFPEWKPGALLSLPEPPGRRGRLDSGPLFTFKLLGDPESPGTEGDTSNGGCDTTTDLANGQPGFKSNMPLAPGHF
T1 sequence (P23944 whole entry): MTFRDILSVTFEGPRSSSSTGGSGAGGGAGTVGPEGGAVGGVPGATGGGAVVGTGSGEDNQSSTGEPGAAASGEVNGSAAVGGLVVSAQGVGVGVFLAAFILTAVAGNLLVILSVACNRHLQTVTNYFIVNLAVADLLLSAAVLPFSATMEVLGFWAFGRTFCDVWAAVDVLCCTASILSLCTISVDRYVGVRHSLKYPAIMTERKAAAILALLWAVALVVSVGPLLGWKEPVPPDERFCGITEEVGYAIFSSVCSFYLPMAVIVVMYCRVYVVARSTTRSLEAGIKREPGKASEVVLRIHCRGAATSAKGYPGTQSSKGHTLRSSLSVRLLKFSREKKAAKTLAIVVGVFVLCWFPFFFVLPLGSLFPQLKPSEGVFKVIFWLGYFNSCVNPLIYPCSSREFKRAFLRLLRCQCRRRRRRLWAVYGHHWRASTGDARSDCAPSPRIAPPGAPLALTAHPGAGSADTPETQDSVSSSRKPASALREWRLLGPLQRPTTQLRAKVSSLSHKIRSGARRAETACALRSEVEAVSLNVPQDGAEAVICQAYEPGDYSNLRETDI
T1 sequence (P43140 whole entry): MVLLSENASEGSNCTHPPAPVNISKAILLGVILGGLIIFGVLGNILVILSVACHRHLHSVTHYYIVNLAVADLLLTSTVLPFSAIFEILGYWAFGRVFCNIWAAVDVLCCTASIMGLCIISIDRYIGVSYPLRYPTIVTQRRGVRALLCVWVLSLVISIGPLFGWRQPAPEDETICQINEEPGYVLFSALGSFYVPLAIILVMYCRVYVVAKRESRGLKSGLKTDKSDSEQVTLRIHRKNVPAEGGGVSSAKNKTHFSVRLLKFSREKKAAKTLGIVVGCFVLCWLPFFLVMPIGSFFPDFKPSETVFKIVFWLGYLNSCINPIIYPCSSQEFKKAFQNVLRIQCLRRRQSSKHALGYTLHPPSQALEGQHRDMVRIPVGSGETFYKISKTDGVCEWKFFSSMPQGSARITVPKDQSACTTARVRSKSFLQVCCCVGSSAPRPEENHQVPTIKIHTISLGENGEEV

[3] = Selectivity ratio of IC50 values of 5-hydroxytryptamine 1A receptor vs Alpha-2 adrenergic receptor
[4] = Selectivity ratio of IC50 values of 5-hydroxytryptamine 1A receptor vs dopamine receptor D2
[5] = molecular target: 5-hydroxytryptamine receptor 2A (Rattus norvegicus, UniProt P14842); test: Binding affinity towards rat 5-hydroxytryptamine 2A receptor was evaluated using [3H]- ketanserin as radioligand
5-hydroxytryptamine receptor 2A, sequence (P14842 whole entry): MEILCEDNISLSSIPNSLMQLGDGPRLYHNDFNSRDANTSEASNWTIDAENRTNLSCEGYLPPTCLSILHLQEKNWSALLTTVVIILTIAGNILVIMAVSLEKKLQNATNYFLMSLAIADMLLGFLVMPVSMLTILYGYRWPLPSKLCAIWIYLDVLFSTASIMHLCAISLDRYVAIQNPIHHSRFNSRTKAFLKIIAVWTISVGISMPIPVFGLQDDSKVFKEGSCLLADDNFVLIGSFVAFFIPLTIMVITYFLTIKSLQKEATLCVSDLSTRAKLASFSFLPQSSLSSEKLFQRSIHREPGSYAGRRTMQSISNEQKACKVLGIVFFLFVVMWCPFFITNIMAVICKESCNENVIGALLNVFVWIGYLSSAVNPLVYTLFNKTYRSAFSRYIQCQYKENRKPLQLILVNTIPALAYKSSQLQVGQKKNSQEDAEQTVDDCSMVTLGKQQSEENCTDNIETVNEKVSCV

[6] = molecular target: T2, 5-hydroxytryptamine receptor 1A (Rattus norvegicus, UniProt P19327); test: Binding affinity towards rat 5-hydroxytryptamine 1A receptor was evaluated using [3H]8-OH-DPAT as radioligand
T2 sequence (P19327 whole entry): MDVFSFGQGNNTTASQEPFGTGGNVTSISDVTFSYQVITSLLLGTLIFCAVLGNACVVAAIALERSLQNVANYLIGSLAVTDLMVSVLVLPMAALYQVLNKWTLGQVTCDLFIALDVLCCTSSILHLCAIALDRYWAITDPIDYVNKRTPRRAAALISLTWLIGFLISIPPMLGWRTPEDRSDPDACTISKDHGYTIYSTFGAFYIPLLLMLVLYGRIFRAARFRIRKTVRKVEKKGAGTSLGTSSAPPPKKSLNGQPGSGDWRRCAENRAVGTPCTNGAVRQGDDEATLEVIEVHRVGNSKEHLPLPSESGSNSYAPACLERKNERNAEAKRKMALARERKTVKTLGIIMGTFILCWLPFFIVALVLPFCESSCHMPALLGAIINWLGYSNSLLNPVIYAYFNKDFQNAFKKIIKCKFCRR

D(2) dopamine receptor = D(2) dopamine receptor (Rattus norvegicus, UniProt P61169); test: Binding affinity towards rat Dopamine receptor D2 was evaluated using [3H]- spiroperidol as radioligand
D(2) dopamine receptor, sequence (P61169 whole entry): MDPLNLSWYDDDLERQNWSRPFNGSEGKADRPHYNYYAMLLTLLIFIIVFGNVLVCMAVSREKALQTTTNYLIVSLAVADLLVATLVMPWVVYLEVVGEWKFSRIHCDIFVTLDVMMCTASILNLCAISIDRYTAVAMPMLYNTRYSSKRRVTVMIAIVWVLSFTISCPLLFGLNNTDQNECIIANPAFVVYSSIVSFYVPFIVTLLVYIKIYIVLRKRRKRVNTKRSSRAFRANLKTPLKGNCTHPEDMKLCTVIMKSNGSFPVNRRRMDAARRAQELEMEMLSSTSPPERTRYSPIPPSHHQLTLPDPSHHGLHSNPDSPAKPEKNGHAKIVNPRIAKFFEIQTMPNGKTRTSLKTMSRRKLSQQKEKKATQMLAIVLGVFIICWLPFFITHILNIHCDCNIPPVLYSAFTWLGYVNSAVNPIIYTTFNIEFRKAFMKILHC

[7] = molecular target: T3, Adrenergic receptor alpha-2 (Rattus norvegicus, UniProt P22086+P19328+P22909); test: Binding affinity towards rat Alpha-2 adrenergic receptor was evaluated using [3H]- yohimbine as radioligand; assay type: protein assay
T3 sequence (P22086 whole entry): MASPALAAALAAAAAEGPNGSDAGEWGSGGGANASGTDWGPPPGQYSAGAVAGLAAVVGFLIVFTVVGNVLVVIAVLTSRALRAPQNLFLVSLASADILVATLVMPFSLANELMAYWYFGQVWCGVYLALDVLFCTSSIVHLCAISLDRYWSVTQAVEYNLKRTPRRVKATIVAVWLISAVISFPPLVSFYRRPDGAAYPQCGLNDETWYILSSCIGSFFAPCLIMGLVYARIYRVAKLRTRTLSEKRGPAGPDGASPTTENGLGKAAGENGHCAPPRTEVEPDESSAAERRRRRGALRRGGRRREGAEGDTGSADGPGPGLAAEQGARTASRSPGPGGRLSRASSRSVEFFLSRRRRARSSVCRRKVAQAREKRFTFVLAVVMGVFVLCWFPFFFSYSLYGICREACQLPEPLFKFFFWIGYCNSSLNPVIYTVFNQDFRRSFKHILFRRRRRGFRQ
T3 sequence (P19328 whole entry): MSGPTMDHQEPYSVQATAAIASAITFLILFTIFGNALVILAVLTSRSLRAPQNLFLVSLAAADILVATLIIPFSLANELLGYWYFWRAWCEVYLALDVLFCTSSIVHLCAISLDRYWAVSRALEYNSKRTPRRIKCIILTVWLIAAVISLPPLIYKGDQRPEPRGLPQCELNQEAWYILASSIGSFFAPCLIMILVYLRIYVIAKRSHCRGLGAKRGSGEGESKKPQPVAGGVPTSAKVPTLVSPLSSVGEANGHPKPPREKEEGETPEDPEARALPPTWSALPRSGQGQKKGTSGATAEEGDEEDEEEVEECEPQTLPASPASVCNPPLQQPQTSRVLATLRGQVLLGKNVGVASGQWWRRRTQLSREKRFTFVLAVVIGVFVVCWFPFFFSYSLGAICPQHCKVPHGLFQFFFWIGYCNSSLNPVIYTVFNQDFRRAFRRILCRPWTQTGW
T3 sequence (P22909 whole entry): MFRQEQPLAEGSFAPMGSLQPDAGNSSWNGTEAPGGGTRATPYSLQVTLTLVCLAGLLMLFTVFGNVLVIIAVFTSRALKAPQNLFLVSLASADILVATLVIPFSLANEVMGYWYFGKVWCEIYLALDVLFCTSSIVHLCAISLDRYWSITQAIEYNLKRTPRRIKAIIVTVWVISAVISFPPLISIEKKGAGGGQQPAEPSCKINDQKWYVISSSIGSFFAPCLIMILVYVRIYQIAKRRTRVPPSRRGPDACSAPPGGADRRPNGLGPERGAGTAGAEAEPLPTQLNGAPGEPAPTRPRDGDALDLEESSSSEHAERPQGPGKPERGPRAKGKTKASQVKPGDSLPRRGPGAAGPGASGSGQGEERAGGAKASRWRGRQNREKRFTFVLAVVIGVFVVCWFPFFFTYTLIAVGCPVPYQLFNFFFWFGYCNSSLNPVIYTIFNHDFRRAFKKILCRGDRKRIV

SMILES	Selectivity ratio [1]	IC50 [2]	Selectivity ratio [3]	Selectivity ratio [4]	pIC50 [5]	pIC50 [6]	pIC50 (D(2) dopamine receptor)	IC50 [7]
COc1ccc2c(c1)C(CCCN1CCN(c3ccccc3)CC1)=CCC2	0.8	173 nM	–	1	6.92	–	6.80	–
COc1cccc2c1CCC/C2=C\CCN1CCN(c2ccccc2)CC1	31	120 nM	15	5	6.24	–	7.00	290 nM
COc1cccc2c1CCC(CCN1CCN(c3ccccc3)CC1)=C2	1	194 nM	2	1	6.62	6.72	6.56	357 nM
COc1cccc2c1CCC(CCN1CCN(c3ccccc3)CC1)C2 (centres undefined)	3	100 nM	11	2	6.80	7.27	6.89	600 nM
COc1ccc2c(c1)CCC(CCN1CCN(c3ccccc3)CC1)C2 (centres undefined)	23	79 nM	43	32	7.07	8.43	6.92	160 nM
COc1cccc2c1CCC=C2CCCN1CCN(c2ccccc2)CC1	11	–	–	17	6.69	–	–	–
COc1ccc2c(c1)CC(CCN1CCN(c3ccccc3)CC1)CC2 (centres undefined)	64	80 nM	72	28	6.64	8.44	7.00	260 nM
COc1ccc2c(c1)CCC(CCN1CCN(c3ccccc3)CC1)=C2	7	88 nM	16	24	7.25	8.09	6.77	130 nM
CCCN(CCC)C1CCc2cccc(O)c2C1 (centres undefined) [8-OH-DPAT]	–	–	–	–	< 5.00	–	–	–
COc1ccc2c(c1)C=C(CCN1CCN(c3ccccc3)CC1)CC2	15	58 nM	18	22	6.97	8.14	6.87	122 nM

Now from value to compound:

Selectivity ratio [1]	IC50 [2]	Selectivity ratio [3]	Selectivity ratio [4]	pIC50 [5]	pIC50 [6]	pIC50 (D(2) dopamine receptor)	IC50 [7]	SMILES
11	130 nM	3	1	6.21	7.25	7.21	140 nM	COc1cccc2c1C(CCCN1CCN(c3ccccc3)CC1)CCC2 (centres undefined)
–	–	–	–	6.48	–	–	–	COc1ccccc1N1CCN(CCCC2CCCc3c(OC)cccc32)CC1 (centres undefined)
30	45 nM	31	17	6.80	–	7.04	170 nM	COc1ccc2c(c1)CCCC2CCCN1CCN(c2ccccc2)CC1 (centres undefined)
462	–	89	259	6.60	–	–	–	COc1cccc2c1CCCC2CCCN1CCN(c2ccccn2)CC1 (centres undefined)
460	–	520	220	6.64	–	–	–	COc1cccc2c1CCCC2CCCN1CCN(c2ccccc2)CC1 (centres undefined)
28	130 nM	51	7	6.38	7.82	6.96	770 nM	COc1cccc2c1CCCC2CCCCN1CCN(c2ccccc2)CC1 (centres undefined)
0.1	84 nM	0.2	2	7.92	6.85	6.68	22 nM	COc1cccc2c1CCCC2CCN1CCN(c2ccccc2)CC1 (centres undefined)
